In patent US20210275422A1, “ANTI-STRESS COMPOSITION CONTAINING COSMOPERINE” (AMOREPACIFIC CORPORATION, priority 2016, published 2021):

Experiments:
[1] = system: PC12 (neurocytoma cell); experiment: Inhibitory effect on glucocorticoid-induced apoptosis (CCK-8 cell survival); assay type: cell-based; details: PC12 cells, 400 μM corticosterone 24 hours, 50 μM cosmoperine pretreated 2 hours before, relative survival rate
Procedure: In order to confirm the anti-stress effect of cosmoperine, a test was performed for glucocorticoid-induced apoptosis.
PC12 (neurocytoma cell; KCLB21721, Korea Cell Line Bank) was seeded into a 96-well plate at 2×10^4 cells/well and cultured at 5% CO2 and 37° C. The culture medium was RPMI 1640 medium (Gibco BRL, Grand Island, N.Y., USA)) supplemented with 10% serum (heat-inactivated fetal bovine serum (FBS, Gibco)), 100 U/ml of penicillin (Gibco) and 100 μg/ml of streptomycin (Gibco). The cells were treated with 400 μM corticosterone (Sigma, MA), which is a stress hormone, and cultured at 5% CO2 and 37° C. for 24 hours to induce stress. 400 μM corticosterone and 50 μM fluoxetine (fluoxetine hydrochloride, Sigma), which is an antidepressant, were used as the positive control group. For the cosmoperine-treated group, 400 μM corticosterone and 50 μM cosmoperine (Sabina Corp, NJ) were used. Fluoxetine and cosmoperine each were pretreated 2 hours before the application of corticosterone. 10 μl of CCK-8 solution (Dojindo Laboratories) was added to each of the wells, followed by culture for 2 hours. Then, measurements were made at […].

[2] = target: T1, oxytocin receptor recombinant protein (Homo sapiens, UniProt P30559); experiment: Binding of cosmoperine to the oxytocin receptor by surface plasmon resonance; details: SPR chip with oxytocin receptor bound to its surface; cosmoperine 0 to 400 μM; reaction for 90 seconds
T1 construct: purchased Mybiosource, MA
T1 sequence (P30559 1-389): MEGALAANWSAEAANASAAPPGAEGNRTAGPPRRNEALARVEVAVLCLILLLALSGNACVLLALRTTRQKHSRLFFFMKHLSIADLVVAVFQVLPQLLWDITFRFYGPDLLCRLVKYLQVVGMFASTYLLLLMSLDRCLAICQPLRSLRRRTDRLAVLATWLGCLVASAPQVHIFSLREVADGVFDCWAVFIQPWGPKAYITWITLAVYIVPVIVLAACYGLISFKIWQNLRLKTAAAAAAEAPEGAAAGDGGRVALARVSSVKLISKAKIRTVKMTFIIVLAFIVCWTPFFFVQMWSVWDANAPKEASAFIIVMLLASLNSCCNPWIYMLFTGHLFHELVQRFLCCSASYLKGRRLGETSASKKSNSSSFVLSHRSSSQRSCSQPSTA
Procedure: In order to confirm the binding of cosmoperine to the oxytocin receptor, cosmoperine (Sabina Corp, NJ) at a concentration of 0 to 400 μM was applied to a SPR chip (Biorad, MA) with the oxytocin receptor (oxytocin receptor recombinant protein, Mybiosource, MA) bound to its surface, followed by reaction for 90 seconds. Then, the binding pattern of cosmoperine to the oxytocin receptor was measured using a surface plasmon resonance device (Surface plasmon resonance; Biorad, MA).

O=C(CCCCc1ccc2c(c1)OCO2)N1CCCCC1 [cosmoperine, tetrahydropiperine]
inhibiting the apoptosis induced by corticosterone [1]: excellent in inhibiting the apoptosis induced by corticosterone
binding to the oxytocin receptor [2]: binds to the oxytocin receptor in a concentration-dependent manner
